Target: tubulin (αβ-heterodimer)
Test: competition with [3H]spongistatin […], centrifugal gel filtration
Format: binding, Bos taurus
Conditions: not given

Row | Molecule | Ki
1 | C=C(Cl)/C=C/C(O)CC(=C)CC1OC2C(C)C(OC(=O)CC3CC(O)CC4(CC(C)(O)CC(/C=C5/COC(C(C)C(=O)CC6CC(OC)CC7(CC(O)CC(/C=C\CCCC8OC(O)(CC(O)C8C)C2O)O7)O6)C5C)O4)O3)C1O (stereo not shown) [spongistatin 5] | 2200 nM

Target: tubulin (αβ-heterodimer)
Test: [3H] radioligand binding
Set-up: species or system Bos taurus
Conditions: not given

Row | Molecule | Kd
2 | spongistatin 1 | 1100 ± 300 nM

Test system: HeLa
Test: cells
Set-up: species or system OVCAR-8, NCI/ADR-RES
Conditions: Homo sapiens, 96 h, read-out: HeLa / IC50 (nM) ± S.D.)

Row | Molecule | IC50
3 | CC(C)[C@H](O)C(=O)N[C@H]1Cc2ccc3c(c2)[C@]24C5=C(N=C(O5)[C@H](C(C)C)NC1=O)c1nc(Cl)c(o1)-c1c(Cl)[nH]c5cccc(c15)-c1cccc2c1N[C@@H]4O3 [Diazonamide A] | 15 ± 5 nM
4 | COc1cc2cc(c1Cl)N(C)C(=O)C[C@H](OC(=O)[C@H](C)N(C)C(C)=O)[C@]1(C)O[C@H]1[C@H](C)[C@@H]1C[C@@](O)(NC(=O)O1)[C@H](OC)/C=C/C=C(\C)C2 [Maytansine] | 2 nM
5 | CO[C@@H](/C(C)=C/C=C/C(C)=C/c1coc(C)n1)[C@@H](C)[C@@H]1C[C@H](O)[C@@]2(C)O[C@@H]2/C=C/[C@@H](C)[C@H]2C[C@H](CC(=O)O2)C[C@@H]2O[C@H]2C(=O)O1 [Rhizoxin] | 3 ± 1 nM
6 | COc1ccc(C[C@H]2NC(=O)/C=C/C[C@@H]([C@H](C)[C@H]3O[C@@H]3c3ccccc3)OC(=O)[C@H](CC(C)C)OC(=O)[C@H](C)CNC2=O)cc1Cl [cryptophycin 1] | 0.01 ± 0.004 nM
7 | CC[C@H](C)[C@@H]([C@@H](CC(=O)N1CCC[C@H]1[C@H](OC)[C@@H](C)C(=O)N[C@@H](Cc1ccccc1)c1nccs1)OC)N(C)C(=O)[C@@H](NC(=O)[C@H](C(C)C)N(C)C)C(C)C [dolastatin 10] | 0.04 ± 0.01 nM
8 | C=C1C[C@@H]2CC[C@@]34C[C@H]5O[C@H]6[C@@H](O3)[C@H]3O[C@H](CC[C@@H]3O[C@H]6[C@H]5O4)CC(=O)C[C@@H]3[C@@H](OC)[C@@H](C[C@H](O)CN)O[C@H]3C[C@H]3O[C@@H](CC[C@@H]1O2)C[C@@H](C)C3=C [eribulin] | 20 nM
9 | CN[C@H](C(=O)N[C@H](C(=O)N(C)[C@H](/C=C(\C)C(=O)O)C(C)C)C(C)(C)C)C(C)(C)c1cn(C)c2ccccc12 [hemiasterlin] | 0.25 ± 0.05 nM
10 | CC[C@]1(O)C[C@@H]2CN(CCc3c([nH]c4ccccc34)[C@@](C(=O)OC)(c3cc4c(cc3OC)N(C)[C@H]3[C@@](O)(C(=O)OC)[C@H](OC(C)=O)[C@]5(CC)C=CCN6CC[C@]43[C@@H]65)C2)C1 [vinblastine] | 6 ± 3 nM
